A short description of data set [1]: Average particle size and polydispersity index of lipid nanoparticles (dynamic light scattering). Format: physicochemical. The following applies: Table 4; Fluc mRNA-loaded lipid nanoparticles; TxT-5-5A14/DSPC/chol/PEG-DMG=50/3/47/1.5; SM-102, ALC-0315 or MC3/DSPC/chol/PEG-DMG=50/10/40/1.5 (mol%). As for the experimental part:
(§1) The average particle size (number average value), ζ-average particle size, and polydispersity index (PdI) of the lipid nanoparticles in PBS(-) (pH 7.4), and the zeta potential in 10 mM HEPES buffer (pH 7.4) were measured using an analyzer "Zetasizer Nano ZS ZEN3600" (manufactured by Malvern) utilizing dynamic light scattering.

Data set [2] in a line: Apparent pKa of lipid nanoparticles (TNS). The following applies: Table 4; Fluc mRNA-loaded lipid nanoparticles; TxT-5-5A14/DSPC/chol/PEG-DMG=50/3/47/1.5; SM-102, ALC-0315 or MC3/DSPC/chol/PEG-DMG=50/10/40/1.5 (mol%).
Protocol: The apparent pKa of the lipid nanoparticles was measured using p-toluenesulfonic acid (TNS). First, TNS (final concentration: 0.75 µM) and lipid nanoparticles (final concentration: 30 µM) were mixed in a buffer (200 mL) adjusted to each pH (pH 3.5 to 9.5). As the buffer, 20 mM citrate buffer, 20 mM sodium phosphate buffer, or 20 mM Tris-HCl buffer containing 130 mM NaCl was used. The fluorescence intensity of the prepared mixture was measured using a fluorescence spectrophotometer (Varioskan Lux, manufactured by Thermo Fisher Scientific) with the settings of λex=321 nm and λem=447 nm. Among the measured values, the highest value and the lowest value were set as 100% and 0% ionization degrees, respectively, and the pH showing a 50% ionization degree was calculated as the apparent pKa. The content ratio (%) of cationically charged pH-sensitive cationic lipid was calculated using the Henderson-Hasselbalch equation.
A short description of data set [3]: Encapsulation rate of lipid nanoparticles (Ribogreen). Format: physicochemical. The following applies: Table 4; Fluc mRNA-loaded lipid nanoparticles; TxT-5-5A14/DSPC/chol/PEG-DMG=50/3/47/1.5; SM-102, ALC-0315 or MC3/DSPC/chol/PEG-DMG=50/10/40/1.5 (mol%). As for the experimental part: The encapsulation rate of the lipid nanoparticles was determined by measuring the amount of encapsulated nucleic acid (mRNA) using Ribogreen (manufactured by Life Technologies), which is an RNA intercalator. The mRNA amount was quantified based on a calibration curve prepared from a series of diluted mRNA solutions at known concentrations.
Specifically, 10 mM HEPES buffer (pH 7.4), 10 w/v% Triton X-100, and Ribogreen were mixed at 978.8 µL, 20 µL, and 1.25 µL per 10 wells, respectively, to obtain a Triton(+) buffer. A Triton(-) buffer was obtained in replacing Triton X-100 with 10 mM HEPES buffer (pH 7.4). 100 µL/well of the sample was added to a black 96-well plate for fluorescence measurement, and 100 µL/well of Triton(+) buffer or Triton(-) buffer was added. After the plate was gently shaken on a shaking incubator (SI-300, manufactured by AS ONE) (700 rpm, 30 seconds), the fluorescence intensity of each well was measured using a microplate reader (VARIOSKAN LUX, manufactured by Thermo Fisher Scientific) (wavelength Ex/Em=500 nm/525 nm), and the nucleic acid encapsulation rate (%) was calculated.

Data set [4] in a line: Zeta potential of lipid nanoparticles. Format: physicochemical. As to conditions: Table 4; Fluc mRNA-loaded lipid nanoparticles; TxT-5-5A14/DSPC/chol/PEG-DMG=50/3/47/1.5; SM-102, ALC-0315 or MC3/DSPC/chol/PEG-DMG=50/10/40/1.5 (mol%). As for the experimental part:
as §1

The next data set relates to factor VII (F7). The following applies: mouse liver; siRNA; cited from earlier work.

Broadly, the pKa is the pH at which an ionisable group is half protonated. `CCCCC/C=C\C/C=C\CCCCCCCCC(CCCCCCCC/C=C\C/C=C\CCCCC)OC(=O)CCCN(C)C` [MC3, DLin-MC3-DMA, reference compound]: in data set [1], the Pdl is listed as 0.20, the “number average particle size” value is listed as 51.8 nm and the ζ-average particle size was 83.6 nm. Besides, the pKa in data set [2] was determined as 6.23. In data set [3], this compound yielded a mRNA concentration of 0.021 µg/µL and a mRNA encapsulation rate of 98.8%. This compound also returned a ζ-potential in data set [4] of -6.8 mV. Moreover, the “ED50 in factor VII (F7) knockdown” value in the data set on factor VII (F7) is listed as 0.005 mg siRNA/kg.

Source of the values: EP4722195A1, “PH-SENSITIVE CATIONIC LIPID AND LIPID NANOPARTICLES” (National University Corporation Hokkaido University, priority 2023, dated 2024).
